In patent US4540700A, “Treatment of diabetic complications with certain spiro-imidazolidine-diones” (Alcon Laboratories, Inc., priority 1984, dated 1985):

System: cataract formation in galactocemic rats
Test: in vivo dose response by intubation (per oral) in galactocemic rats, cataract (vacuole) formation
Set-up: species or system Charles River CD (Sprague-Dawley derived) male rats
Method: B. In vivo dose response studies were conducted to test the in vivo activity of the following compounds by intubation (per oral) in galactocemic rats on a 30% galactose diet previously described:
Stock suspensions of the test compounds and all dilutions of the compound were formulated with 0.03% by weight Tween 80.
Healthy, Charles River CD (outbred albino, Sprague-Dawley derived) male rats, aged 20-30 days, without observable ocular defects and ranging in weight from 35-45 grams, were acclimated to experimental conditions (in quarantine) for two days prior to beginning the study.
Rats were individually assigned to one of twenty-three groups according to a random number schedule. Two rats, belonging to the same drug-diet treatment group, were housed per cage. Treatment and control groups consisted of six (6) rats each with no replacement in the event of death, and were designated as follows:
Lenses of all eyes were examined with a hand-held ophthalmoscope in the early stages of cataract development and a penlight for the stages, snowflake-like, snowflake, and nuclear cataract. Lens grading occurred every day for the first ten study days, and then every other day until study Day 14.
The relative potency determination was made at 7 drug levels over half log dose intervals. The response (percent cataracts formed and/or the time to cataract formation) was plotted against mg/kg and/or moles/kg.
The study was directed to the suppression and/or elimination of the initial stages of cataract development characterized by vacuoles or snowflake-likeopacities only. It was assumed therefore that suppression and/or elimination of vacuoles or lens opacification by the test drugs affects the transport, absorption and/or metabolism of galactose in such a manner as to prevent subsequent osmotic disturbances normally leading to tissue degeneration and advanced cataract. Advanced cataract defined as stages 2-4 of the Sipple classification was assumed to be of secondary importance to the etiology of cataract inhibition.
In the event where cataract stage other than vacuole formed, such as snowflake-like opacities, this cataract was counted similarly as vacuole in percent cataract formation.
This study yielded this expected effect in the control groups.
All animals were fed Purina Laboratory Chow and water, ad libitum, for the two day acclimation period. All drugs were dosed orally by intubation using an animal feeding needle (Popper and Sons), 18 or 20 gauge, attached to a 1 or 3 ml syringe. Once the dosing time schedule was established, the schedule was followed throughout the study to compensate for any diurnal variation.
The animals were kept on a twelve hour day/night cycle. The temperature and humidity were determined each day at the scheduled dosing time of 1:00 p.m.
The animals were weighed every other day and adjustments to dosage amounts to compensate for weight gain were made each day prior to the dose time. All food was routinely withheld from all animal groups for four hours (9:00 a.m.) prior to the drug dose and restored two hours (3:00 p.m.) post-dose. Otherwise sufficient amounts of chow or diet mixture were maintained in the food hopper to allow the animals to eat ad libitum. There were two days of drug dosage with the animals remaining on Purina Laboratory Chow (Days 1 and 2). The 30% galactose diet mixture was introduced to the animals two hours post-dose on Day 3 which constituted Day 1 of the study.
All eyes were examined with a hand-held ophthalmoscope and/or penlight at the times designated in the Experimental Design section.
It has been found in previous studies that dilation of the eye with a mydriactic (i.e. Mydriacyl) is not necessary for accurate grading, due to the semi-transparent nature of the rat iris. In the early stages (i.e., grades -, ±, and +) the lens was observed by reflecting the ophthalmoscope beam off the retina back through the lens and iris. Using this technique, vacuoles appear as dark, almost opaque patches. […]

[1] = relative to Sarges Racemic, observation day 12, 95% confidence limits

O=C1NC(=O)C2(N1)c1ccccc1-c1ccc(F)cc12 (racemic) [Compound L, dl-Spiro(2-fluorofluoren-9,4'-imidazolidine)-2',5'-dione]
Percent of Rat Eyes With at Least Vacuoles Formed (0.126 mg/kg p.o., Day 0): 0%
Percent of Rat Eyes With at Least Vacuoles Formed (0.126 mg/kg p.o., Day 1): 0%
Percent of Rat Eyes With at Least Vacuoles Formed (0.126 mg/kg p.o., Day 2): 0%
Percent of Rat Eyes With at Least Vacuoles Formed (0.126 mg/kg p.o., Day 3): 0%
Percent of Rat Eyes With at Least Vacuoles Formed (0.126 mg/kg p.o., Day 4): 0%
Percent of Rat Eyes With at Least Vacuoles Formed (0.126 mg/kg p.o., Day 5): 0%
Percent of Rat Eyes With at Least Vacuoles Formed (0.126 mg/kg p.o., Day 6): 33%
Percent of Rat Eyes With at Least Vacuoles Formed (0.126 mg/kg p.o., Day 7): 33%
Percent of Rat Eyes With at Least Vacuoles Formed (0.126 mg/kg p.o., Day 8): 50%
Percent of Rat Eyes With at Least Vacuoles Formed (0.126 mg/kg p.o., Day 9): 50%
Percent of Rat Eyes With at Least Vacuoles Formed (0.126 mg/kg p.o., Day 10): 50%
Percent of Rat Eyes With at Least Vacuoles Formed (0.126 mg/kg p.o., Day 12): 83%
Percent of Rat Eyes With at Least Vacuoles Formed (0.126 mg/kg p.o., Day 14): 83%
Percent of Rat Eyes With at Least Vacuoles Formed (0.4 mg/kg p.o., Day 0): 0%
Percent of Rat Eyes With at Least Vacuoles Formed (0.4 mg/kg p.o., Day 1): 0%
Percent of Rat Eyes With at Least Vacuoles Formed (0.4 mg/kg p.o., Day 2): 0%
Percent of Rat Eyes With at Least Vacuoles Formed (0.4 mg/kg p.o., Day 3): 0%
Percent of Rat Eyes With at Least Vacuoles Formed (0.4 mg/kg p.o., Day 4): 0%
Percent of Rat Eyes With at Least Vacuoles Formed (0.4 mg/kg p.o., Day 5): 0%
Percent of Rat Eyes With at Least Vacuoles Formed (0.4 mg/kg p.o., Day 6): 0%
Percent of Rat Eyes With at Least Vacuoles Formed (0.4 mg/kg p.o., Day 7): 8%
Percent of Rat Eyes With at Least Vacuoles Formed (0.4 mg/kg p.o., Day 8): 42%
Percent of Rat Eyes With at Least Vacuoles Formed (0.4 mg/kg p.o., Day 9): 42%
Percent of Rat Eyes With at Least Vacuoles Formed (0.4 mg/kg p.o., Day 10): 67%
Percent of Rat Eyes With at Least Vacuoles Formed (0.4 mg/kg p.o., Day 12): 83%
Percent of Rat Eyes With at Least Vacuoles Formed (0.4 mg/kg p.o., Day 14): 100%
Percent of Rat Eyes With at Least Vacuoles Formed (1.26 mg/kg p.o., Day 0): 0%
Percent of Rat Eyes With at Least Vacuoles Formed (1.26 mg/kg p.o., Day 1): 0%
Percent of Rat Eyes With at Least Vacuoles Formed (1.26 mg/kg p.o., Day 2): 0%
Percent of Rat Eyes With at Least Vacuoles Formed (1.26 mg/kg p.o., Day 3): 0%
Percent of Rat Eyes With at Least Vacuoles Formed (1.26 mg/kg p.o., Day 4): 0%
Percent of Rat Eyes With at Least Vacuoles Formed (1.26 mg/kg p.o., Day 5): 0%
Percent of Rat Eyes With at Least Vacuoles Formed (1.26 mg/kg p.o., Day 6): 0.0%
Percent of Rat Eyes With at Least Vacuoles Formed (1.26 mg/kg p.o., Day 6, listed as 2-fluoro): 0%
Percent of Rat Eyes With at Least Vacuoles Formed (1.26 mg/kg p.o., Day 7): 0%
Percent of Rat Eyes With at Least Vacuoles Formed (1.26 mg/kg p.o., Day 8): 0%
Percent of Rat Eyes With at Least Vacuoles Formed (1.26 mg/kg p.o., Day 9): 0%
Percent of Rat Eyes With at Least Vacuoles Formed (1.26 mg/kg p.o., Day 10): 0%
Percent of Rat Eyes With at Least Vacuoles Formed (1.26 mg/kg p.o., Day 12): 0%
Percent of Rat Eyes With at Least Vacuoles Formed (1.26 mg/kg p.o., Day 14): 0%
Percent of Rat Eyes With at Least Vacuoles Formed (4.0 mg/kg p.o., Day 0): 0%
Percent of Rat Eyes With at Least Vacuoles Formed (4.0 mg/kg p.o., Day 1): 0%
Percent of Rat Eyes With at Least Vacuoles Formed (4.0 mg/kg p.o., Day 2): 0%
Percent of Rat Eyes With at Least Vacuoles Formed (4.0 mg/kg p.o., Day 3): 0%
Percent of Rat Eyes With at Least Vacuoles Formed (4.0 mg/kg p.o., Day 4): 0%
Percent of Rat Eyes With at Least Vacuoles Formed (4.0 mg/kg p.o., Day 5): 0%
Percent of Rat Eyes With at Least Vacuoles Formed (4.0 mg/kg p.o., Day 6): 0.0%
Percent of Rat Eyes With at Least Vacuoles Formed (4.0 mg/kg p.o., Day 6, listed as 2-fluoro): 0%
Percent of Rat Eyes With at Least Vacuoles Formed (4.0 mg/kg p.o., Day 7): 0.0%
Percent of Rat Eyes With at Least Vacuoles Formed (4.0 mg/kg p.o., Day 7, listed as 2-fluoro): 0%
Percent of Rat Eyes With at Least Vacuoles Formed (4.0 mg/kg p.o., Day 8): 0.0%
Percent of Rat Eyes With at Least Vacuoles Formed (4.0 mg/kg p.o., Day 8, listed as 2-fluoro): 0%
Percent of Rat Eyes With at Least Vacuoles Formed (4.0 mg/kg p.o., Day 9): 0.0%
Percent of Rat Eyes With at Least Vacuoles Formed (4.0 mg/kg p.o., Day 9, listed as 2-fluoro): 0%
Percent of Rat Eyes With at Least Vacuoles Formed (4.0 mg/kg p.o., Day 10): 0.0%
Percent of Rat Eyes With at Least Vacuoles Formed (4.0 mg/kg p.o., Day 10, listed as 2-fluoro): 0%
Percent of Rat Eyes With at Least Vacuoles Formed (4.0 mg/kg p.o., Day 12): 0.0%
Percent of Rat Eyes With at Least Vacuoles Formed (4.0 mg/kg p.o., Day 12, listed as 2-fluoro): 0%
Percent of Rat Eyes With at Least Vacuoles Formed (4.0 mg/kg p.o., Day 14): 0.0%
Percent of Rat Eyes With at Least Vacuoles Formed (4.0 mg/kg p.o., Day 14, listed as 2-fluoro): 0%
Percent of Rat Eyes With at Least Vacuoles Formed (12.6 mg/kg p.o., Day 0): 0%
Percent of Rat Eyes With at Least Vacuoles Formed (12.6 mg/kg p.o., Day 1): 0%
Percent of Rat Eyes With at Least Vacuoles Formed (12.6 mg/kg p.o., Day 2): 0%
Percent of Rat Eyes With at Least Vacuoles Formed (12.6 mg/kg p.o., Day 3): 0%
Percent of Rat Eyes With at Least Vacuoles Formed (12.6 mg/kg p.o., Day 4): 0%
Percent of Rat Eyes With at Least Vacuoles Formed (12.6 mg/kg p.o., Day 5): 0%
Percent of Rat Eyes With at Least Vacuoles Formed (12.6 mg/kg p.o., Day 6): 0.0%
Percent of Rat Eyes With at Least Vacuoles Formed (12.6 mg/kg p.o., Day 6, listed as 2-fluoro): 0%
Percent of Rat Eyes With at Least Vacuoles Formed (12.6 mg/kg p.o., Day 7): 0.0%
Percent of Rat Eyes With at Least Vacuoles Formed (12.6 mg/kg p.o., Day 7, listed as 2-fluoro): 0%
Percent of Rat Eyes With at Least Vacuoles Formed (12.6 mg/kg p.o., Day 8): 0.0%
Percent of Rat Eyes With at Least Vacuoles Formed (12.6 mg/kg p.o., Day 8, listed as 2-fluoro): 0%
Percent of Rat Eyes With at Least Vacuoles Formed (12.6 mg/kg p.o., Day 9): 0.0%
Percent of Rat Eyes With at Least Vacuoles Formed (12.6 mg/kg p.o., Day 9, listed as 2-fluoro): 0%
Percent of Rat Eyes With at Least Vacuoles Formed (12.6 mg/kg p.o., Day 10): 0.0%
Percent of Rat Eyes With at Least Vacuoles Formed (12.6 mg/kg p.o., Day 10, listed as 2-fluoro): 0%
Percent of Rat Eyes With at Least Vacuoles Formed (12.6 mg/kg p.o., Day 12): 0.0%
Percent of Rat Eyes With at Least Vacuoles Formed (12.6 mg/kg p.o., Day 12, listed as 2-fluoro): 0%
Percent of Rat Eyes With at Least Vacuoles Formed (12.6 mg/kg p.o., Day 14): 0.0%
Percent of Rat Eyes With at Least Vacuoles Formed (12.6 mg/kg p.o., Day 14, listed as 2-fluoro): 0%
Percent of Rat Eyes With at Least Vacuoles Formed (40 mg/kg p.o., Day 0): 0%
Percent of Rat Eyes With at Least Vacuoles Formed (40 mg/kg p.o., Day 1): 0%
Percent of Rat Eyes With at Least Vacuoles Formed (40 mg/kg p.o., Day 2): 0%
Percent of Rat Eyes With at Least Vacuoles Formed (40 mg/kg p.o., Day 3): 0%
Percent of Rat Eyes With at Least Vacuoles Formed (40 mg/kg p.o., Day 4): 0%
Percent of Rat Eyes With at Least Vacuoles Formed (40 mg/kg p.o., Day 5): 0%
Percent of Rat Eyes With at Least Vacuoles Formed (40 mg/kg p.o., Day 6): 0.0%
Percent of Rat Eyes With at Least Vacuoles Formed (40 mg/kg p.o., Day 6, listed as 2-fluoro): 0%
Percent of Rat Eyes With at Least Vacuoles Formed (40 mg/kg p.o., Day 7): 0.0%
Percent of Rat Eyes With at Least Vacuoles Formed (40 mg/kg p.o., Day 7, listed as 2-fluoro): 0%
Percent of Rat Eyes With at Least Vacuoles Formed (40 mg/kg p.o., Day 8): 0.0%
Percent of Rat Eyes With at Least Vacuoles Formed (40 mg/kg p.o., Day 8, listed as 2-fluoro): 0%
Percent of Rat Eyes With at Least Vacuoles Formed (40 mg/kg p.o., Day 9): 0.0%
Percent of Rat Eyes With at Least Vacuoles Formed (40 mg/kg p.o., Day 9, listed as 2-fluoro): 0%
Percent of Rat Eyes With at Least Vacuoles Formed (40 mg/kg p.o., Day 10): 0.0%
Percent of Rat Eyes With at Least Vacuoles Formed (40 mg/kg p.o., Day 10, listed as 2-fluoro): 0%
Percent of Rat Eyes With at Least Vacuoles Formed (40 mg/kg p.o., Day 12): 0.0%
Percent of Rat Eyes With at Least Vacuoles Formed (40 mg/kg p.o., Day 12, listed as 2-fluoro): 0%
Percent of Rat Eyes With at Least Vacuoles Formed (40 mg/kg p.o., Day 14): 0.0%
Percent of Rat Eyes With at Least Vacuoles Formed (40 mg/kg p.o., Day 14, listed as 2-fluoro): 0%
activity in vivo relative to the Sarges compound (rat studies): unexpectedly and significantly more active
Relative Potency (antilog) [1]: 4.58
log relative potency for eyes with vacuoles or more advanced cataracts [1]: 0.6605
